How the values were obtained:
MASP-2 CCP2-SP = MASP-2 CCP2-SP (Homo sapiens (Human), UniProt O00187); experiment: MASP-2 co-crystallization, X-ray crystallography and structure analysis (H-bonds, van der Waals contacts); design: van der Waals contact distance, MASP-2 HIS 483 atom CD2 / van der Waals contact distance, MASP-2 HIS 483 atom NE2 / van der Waals contact distance, SER 654 C to compound atom / van der Waals contact distance, SER 654 O to compound atom / van der Waals contact distance, TRP 655 C to compound atom / van der Waals contact distance, MASP-2 GLY 528 atom CA / van der Waals contact distance TRP 655 atom CZ3 / van der Waals contact distance TRP 655 atom N / van der Waals contact distance TRP 655 atom CE3 / van der Waals contact distance GLY 656 atom C / van der Waals contact distance GLY 656 atom CA / van der Waals contact distance GLY 656 atom O / van der Waals contact distance, MASP-2 TYR 607 atom CD1 / van der Waals contact distance, MASP-2 PRO 606 atom O / d(C3,CA1) / d(CA1,N1)2 / d(H4,O1) / d(H4,O2) / d(O1,O2) / d(CA1,O2) / d(CA6,O1) / d(CA6,O2) / d(CA1,C5) / d(O2,H3) / d(N2,C2) / d(CA5,N2) / d(N2,C4) / d(N2,C6) / d(N2,CA3) / d(N2,O3) / d(O4,H2): unit not given beside the values; conditions: for H-bond distance to MASP-2 GLY 656 atom N: GLY 656 N; for H-bond distance to MASP-2 GLY 656 atom O: GLY 656 O; for H-bond distance to MASP-2 SER 654 atom O: SER 654 O; for van der Waals contact distance, MASP-2 amino acid atom to compound atom: ARG 630; for van der Waals contact distance TRP 655 atom CE3 / van der Waals contact distance TRP 655 atom CZ3 / van der Waals contact distance TRP 655 atom N: Table A2-13; for van der Waals contact distance TRP 655 atom CE3: MASP-2 TRP 655 CE3, compound atom in line below; for van der Waals contact distance TRP 655 atom CZ3: MASP-2 TRP 655 CZ3; for van der Waals contact distance TRP 655 atom N: MASP-2 TRP 655 N; for Ligand-pharmacophore element distance, pharmacophore element C2 / Ligand-pharmacophore element distance, pharmacophore element C3 / Ligand-pharmacophore element distance, pharmacophore element C4 / Ligand-pharmacophore element distance, pharmacophore element C5 / Ligand-pharmacophore element distance, pharmacophore element C6 / Ligand-pharmacophore element distance, pharmacophore element C7 / Ligand-pharmacophore element distance, pharmacophore element CA1 / Ligand-pharmacophore element distance, pharmacophore element CA2 / Ligand-pharmacophore element distance, pharmacophore element CA3 / Ligand-pharmacophore element distance, pharmacophore element CA4 / Ligand-pharmacophore element distance, pharmacophore element CA5 / Ligand-pharmacophore element distance, pharmacophore element CA6: Table A4-1; for d(N2,CA2) / d(O2,H3) / d(O2,N2): Table A5-2 pharmacophore distance, S3/S4 region; for a(O1, O2, H3) / a(O1, O2, N2) / a(O2, N2, CA2): Table A6-2 pharmacophore angle;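 on Ligand-pharmacophore element distance, pharmacophore element C2: distance from averaged pharmacophore element to bound ligand; missing value means element absent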;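 on Ligand-pharmacophore element distance, pharmacophore element C3: distance from averaged pharmacophore element to bound ligand; missing value means element absent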;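 on Ligand-pharmacophore element distance, pharmacophore element C4: distance from averaged pharmacophore element to bound ligand; missing value means element absent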;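 on Ligand-pharmacophore element distance, pharmacophore element C5: distance from averaged pharmacophore element to bound ligand; missing value means element absent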
Sequence of MASP-2 CCP2-SP (O00187 445-686): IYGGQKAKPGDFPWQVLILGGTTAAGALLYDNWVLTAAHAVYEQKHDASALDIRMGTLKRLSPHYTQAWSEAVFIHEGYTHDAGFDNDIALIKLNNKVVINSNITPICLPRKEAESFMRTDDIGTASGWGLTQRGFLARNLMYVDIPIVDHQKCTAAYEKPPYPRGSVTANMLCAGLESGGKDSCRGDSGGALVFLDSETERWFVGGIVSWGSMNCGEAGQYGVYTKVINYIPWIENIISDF
Sequence of MASP-2 CCP2-SP (O00187 364-432 partner): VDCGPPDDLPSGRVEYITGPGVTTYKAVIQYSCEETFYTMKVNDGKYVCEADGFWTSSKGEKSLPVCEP
In short: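 Soaked crystals of recombinant CCP2-SP (E. coli) yield the structures, phased by molecular replacement on 1Q3X pieces. Hydrophobic or nonbonded contacts can also cover atom pairs that are potential hydrogen bonds.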

Lectin Pathway = Lectin Pathway Activation Assay in Human Serum (mannan-coated ELISA, C3c detection); type: biochemical; conditions: 1% human serum
Procedure: Microtiter ELISA plate was coated with mannan from Saccharomyces cerevisiae (Sigma-Aldrich, M7504) for overnight at 4° C. in coating buffer [15 mM Na2CO3, 35 mM NaHCO3].

[1] = Table A5-1 pharmacophore: distance between elements, S2/S1 region
[2] = Table A7-1, between pharmacophore elements of the bound compound
[3] = Table A7-2, between pharmacophore elements of the bound compound

C[C@H](NC(=O)[C@H]1C[C@H](Cc2ccccc2)CN1)C(=O)NCc1cnc2[nH]cc(Cl)c2c1 [compound 1334, (2R,4S)-4-Benzyl-N—((S)-1-(((3-chloro-1H-pyrrolo[2,3-b]pyridin-5-yl)methyl)amino)-1-oxopropan-2-yl)pyrrolidine-2-carboxamide]
H-bond distance to MASP-2 GLY 656 atom N (MASP-2 CCP2-SP; Table A1 (H-Bonds)): 3.16
H-bond distance to MASP-2 GLY 656 atom O (MASP-2 CCP2-SP; Table A1 (H-Bonds)): 2.83
H-bond distance to MASP-2 SER 654 atom O (MASP-2 CCP2-SP; Table A1 (H-Bonds)): 2.81
van der Waals contact distance, MASP-2 HIS 483 atom CD2 (MASP-2 CCP2-SP; Table A2-1): 3.66
van der Waals contact distance, MASP-2 HIS 483 atom CE1 (MASP-2 CCP2-SP; Table A2-1): 3.84
van der Waals contact distance, MASP-2 PHE 529 atom CD2 (MASP-2 CCP2-SP; Table A2-3): 3.73
van der Waals contact distance, MASP-2 TYR 607 atom CD1 (MASP-2 CCP2-SP; Table A2-4): 3.81
van der Waals contact distance, MASP-2 amino acid atom to compound atom (MASP-2 CCP2-SP; Table A2-9, AA atoms CG, CZ): 3.89
van der Waals contact distance, MASP-2 amino acid atom to compound atom (MASP-2 CCP2-SP; Table A2-9 second part, AA atoms N, NE, NH1): 3.59
van der Waals contact distance TRP 655 atom CE3 (MASP-2 CCP2-SP): 3.66
van der Waals contact distance TRP 655 atom CZ3 (MASP-2 CCP2-SP): 3.67
van der Waals contact distance TRP 655 atom N (MASP-2 CCP2-SP): 3.68
Ligand-pharmacophore element distance, pharmacophore element C2 (MASP-2 CCP2-SP): 0
Ligand-pharmacophore element distance, pharmacophore element C3 (MASP-2 CCP2-SP): 0
Ligand-pharmacophore element distance, pharmacophore element C4 (MASP-2 CCP2-SP): 0
Ligand-pharmacophore element distance, pharmacophore element C5 (MASP-2 CCP2-SP): 0.34
Ligand-pharmacophore element distance, pharmacophore element C6 (MASP-2 CCP2-SP): 0
Ligand-pharmacophore element distance, pharmacophore element C7 (MASP-2 CCP2-SP): 0
Ligand-pharmacophore element distance, pharmacophore element CA1 (MASP-2 CCP2-SP): 1.04
Ligand-pharmacophore element distance, pharmacophore element CA2 (MASP-2 CCP2-SP): 0.7
Ligand-pharmacophore element distance, pharmacophore element CA3 (MASP-2 CCP2-SP): 0
Ligand-pharmacophore element distance, pharmacophore element CA4 (MASP-2 CCP2-SP): 0
Ligand-pharmacophore element distance, pharmacophore element CA5 (MASP-2 CCP2-SP): 0
Ligand-pharmacophore element distance, pharmacophore element CA6 (MASP-2 CCP2-SP): 0
d(CA1,C5) (MASP-2 CCP2-SP; [1]): 3.47
d(CA1,O1) (MASP-2 CCP2-SP; [1]): 5.33
d(CA1,O2) (MASP-2 CCP2-SP; [1]): 4.84
d(CA1,O4) (MASP-2 CCP2-SP; [1]): 1.75
d(H4,O1) (MASP-2 CCP2-SP; [1]): 3.14
d(H4,O2) (MASP-2 CCP2-SP; [1]): 3.74
d(O1,O2) (MASP-2 CCP2-SP; [1]): 3.24
d(N2,CA2) (MASP-2 CCP2-SP): 6.09
d(O2,H3) (MASP-2 CCP2-SP): 2.99
d(O2,N2) (MASP-2 CCP2-SP): 2.77
a(C5, CA1, O1) (MASP-2 CCP2-SP; Table A6-1 pharmacophore angle): 150.49
a(CA1, O1, O2) (MASP-2 CCP2-SP; Table A6-1 pharmacophore angle): 100.10
a(O1, CA1, O4) (MASP-2 CCP2-SP; Table A6-1 pharmacophore angle): 68.25
a(O1, O2, H4) (MASP-2 CCP2-SP; Table A6-1 pharmacophore angle): 124.74
a(O1, O2, H3) (MASP-2 CCP2-SP): 136.63
a(O1, O2, N2) (MASP-2 CCP2-SP): 143.82
a(O2, N2, CA2) (MASP-2 CCP2-SP): 155.99
Pharmacophore torsion angle a(C5, CA1, O1, H4) (MASP-2 CCP2-SP; [2]): 2.51
Pharmacophore torsion angle a(H4, O1, O2, H3) (MASP-2 CCP2-SP; [2]): 110.57
Pharmacophore torsion angle a(H4, O1, O2, N2) (MASP-2 CCP2-SP; [2]): −172.73
Pharmacophore torsion angle a(O1, H4, O2, CA1) (MASP-2 CCP2-SP; [2]): −93.67
Pharmacophore torsion angle a(O1, O2, N2, CA2) (MASP-2 CCP2-SP; [3]): 133.84
IC50 (Lectin Pathway): 50 to 500 nM

Cc1nc(N)ccc1CNC(=O)[C@H](C)NC(=O)[C@H]1C[C@H](Cc2ccc3ccccc3c2)CN1 [compound 1338, (2R,4S)—N—((S)-1-(((6-Amino-2-methylpyridin-3-yl)methyl)amino)-1-oxopropan-2-yl)-4-(naphthalen-2-ylmethyl)pyrrolidine-2-carboxamide]
H-bond distance to MASP-2 ASP 627 atom OD2 (MASP-2 CCP2-SP; Table A1 (H-Bonds), ASP 627 OD2): 3.2
H-bond distance to MASP-2 GLY 656 atom N (MASP-2 CCP2-SP; Table A1 (H-Bonds)): 3.23
H-bond distance to MASP-2 GLY 656 atom O (MASP-2 CCP2-SP; Table A1 (H-Bonds)): 2.78
H-bond distance to MASP-2 SER 628 atom O (MASP-2 CCP2-SP; Table A1 (H-Bonds), SER 628 O): 3.04
H-bond distance to MASP-2 SER 654 atom O (MASP-2 CCP2-SP; Table A1 (H-Bonds)): 2.99
H-bond distance to MASP-2 SER 657 atom O (MASP-2 CCP2-SP; Table A1 (H-Bonds), SER 657 O): 2.93
van der Waals contact distance, MASP-2 HIS 483 atom CD2 (MASP-2 CCP2-SP; Table A2-1): 3.58
van der Waals contact distance, MASP-2 HIS 483 atom NE2 (MASP-2 CCP2-SP; Table A2-1): 3.82
van der Waals contact distance, MASP-2 ALA 527 atom C (MASP-2 CCP2-SP; Table A2-2): 3.67
van der Waals contact distance, MASP-2 PHE 529 atom CE2 (MASP-2 CCP2-SP; Table A2-3): 3.86
van der Waals contact distance, MASP-2 amino acid atom to compound atom (MASP-2 CCP2-SP; Table A2-9, AA atoms CG, CZ): 3.75
van der Waals contact distance, VAL 653 CG1 to compound atom (MASP-2 CCP2-SP; Table A2-11): 3.33
van der Waals contact distance, TRP 655 CA to compound atom (MASP-2 CCP2-SP; Table A2-12): 3.4
van der Waals contact distance TRP 655 atom CE3 (MASP-2 CCP2-SP): 3.83
van der Waals contact distance TRP 655 atom CZ3 (MASP-2 CCP2-SP): 3.74
van der Waals contact distance TRP 655 atom N (MASP-2 CCP2-SP): 3.9
Ligand-pharmacophore element distance, pharmacophore element C2 (MASP-2 CCP2-SP): 0
Ligand-pharmacophore element distance, pharmacophore element C3 (MASP-2 CCP2-SP): 0.12
Ligand-pharmacophore element distance, pharmacophore element C4 (MASP-2 CCP2-SP): 0
Ligand-pharmacophore element distance, pharmacophore element C5 (MASP-2 CCP2-SP): 0
Ligand-pharmacophore element distance, pharmacophore element C6 (MASP-2 CCP2-SP): 0
Ligand-pharmacophore element distance, pharmacophore element C7 (MASP-2 CCP2-SP): 0
Ligand-pharmacophore element distance, pharmacophore element CA1 (MASP-2 CCP2-SP): 0.55
Ligand-pharmacophore element distance, pharmacophore element CA2 (MASP-2 CCP2-SP): 0.59
Ligand-pharmacophore element distance, pharmacophore element CA3 (MASP-2 CCP2-SP): 0
Ligand-pharmacophore element distance, pharmacophore element CA4 (MASP-2 CCP2-SP): 1.21
Ligand-pharmacophore element distance, pharmacophore element CA5 (MASP-2 CCP2-SP): 0
Ligand-pharmacophore element distance, pharmacophore element CA6 (MASP-2 CCP2-SP): 0
d(C3,CA1) (MASP-2 CCP2-SP; [1]): 2.88
d(CA1,N1)2 (MASP-2 CCP2-SP; [1]): 1.37
d(CA1,O1) (MASP-2 CCP2-SP; [1]): 4.35
d(CA1,O2) (MASP-2 CCP2-SP; [1]): 3.80
d(H4,O1) (MASP-2 CCP2-SP; [1]): 4.33
d(H4,O2) (MASP-2 CCP2-SP; [1]): 3.75
d(O1,O2) (MASP-2 CCP2-SP; [1]): 3.35
d(N2,CA2) (MASP-2 CCP2-SP): 6.05
d(O2,H3) (MASP-2 CCP2-SP): 4.29
d(O2,N2) (MASP-2 CCP2-SP): 2.74
a(C3, CA1, O1) (MASP-2 CCP2-SP; Table A6-1 pharmacophore angle): 148.99
a(CA1, O1, O2) (MASP-2 CCP2-SP; Table A6-1 pharmacophore angle): 105.30
a(O1, O2, H4) (MASP-2 CCP2-SP; Table A6-1 pharmacophore angle): 131.78
a(N1, CA1, O1) b) (MASP-2 CCP2-SP; Table A6-1 pharmacophore angle, Methyl-amino-pyridine compounds): 173.72
a(O1, O2, H3) (MASP-2 CCP2-SP): 148.03
a(O1, O2, N2) (MASP-2 CCP2-SP): 141.48
a(O2, N2, CA2) (MASP-2 CCP2-SP): 157.11
Pharmacophore torsion angle a(C3, CA1, O1, H4) (MASP-2 CCP2-SP; [2]): 23.02
Pharmacophore torsion angle a(H4, O1, O2, H3) (MASP-2 CCP2-SP; [2]): 52.11
Pharmacophore torsion angle a(H4, O1, O2, N2) (MASP-2 CCP2-SP; [2]): 140.39
Pharmacophore torsion angle a(N1, CA1, O1, H4) (MASP-2 CCP2-SP; [2]): −3.32
Pharmacophore torsion angle a(O1, H4, O2, CA1) (MASP-2 CCP2-SP; [2]): −85.13
Pharmacophore torsion angle a(O1, O2, N2, CA2) (MASP-2 CCP2-SP; [3]): 124.64
Pharmacophore torsion angle a(O1, O2, N2, CA4) (MASP-2 CCP2-SP; [3]): 116.54
IC50 (Lectin Pathway): 50 to 500 nM

— patent publication US12195427B2, “MASP-2 inhibitors and methods of use” (priority 2018, dated 2025)
